Results: ChEMBL document CHEMBL1201862, “PubChem BioAssay data set” (2004)
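Cultured in 96-well plates, cells were exposed to test compound for 48 hours across five concentrations. GI50 is the concentration that inhibits growth by half.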 The source made the active and inactive calls. Cut-off read from the data, not from the text of the source: active = GI50 up to about 1.1 µM and inactive = higher.

Assays:
Assay in all cases: NCI tumour cell line growth inhibition, 48 h
DU-145 = system: DU-145
Hs-578T = system: Hs-578T
T47D = system: T47D
MDA-MB-435 = system: MDA-MB-435
SK-MEL-28 = system: SK-MEL-28
SNB-19 = system: SNB-19
CAKI-1 = system: CAKI-1
HOP-62 = system: HOP-62
ACHN = system: ACHN
HT-29 = system: HT-29
A549 = system: A549
TK-10 = system: TK-10
COLO 205 = system: COLO 205
UO-31 = system: UO-31
MDA-N = system: MDA-N
HCT-116 = system: HCT-116
SK-MEL-5 = system: SK-MEL-5
SK-MEL-2 = system: SK-MEL-2
KM12 = system: KM12
SF-539 = system: SF-539
SF-295 = system: SF-295
RXF 393 = system: RXF 393
NCI-H23 = system: NCI-H23
OVCAR-3 = system: OVCAR-3
K562 = system: K562
NCI-H522 = system: NCI-H522
BT-549 = system: BT-549
OVCAR-4 = system: OVCAR-4
HCT-15 = system: HCT-15
NCI/ADR-RES = system: NCI/ADR-RES
OVCAR-5 = system: OVCAR-5
786-0 = system: 786-0
SR = system: SR
UACC-62 = system: UACC-62
RPMI-8226 = system: RPMI-8226
MOLT-4 = system: MOLT-4
PC-3 = system: PC-3
HCC 2998 = system: HCC 2998
UACC-257 = system: UACC-257
EKVX = system: EKVX
IGROV-1 = system: IGROV-1
SW-620 = system: SW-620
NCI-H460 = system: NCI-H460
CCRF-CEM = system: CCRF-CEM
M14 = system: M14
SN12C = system: SN12C
SK-OV-3 = system: SK-OV-3
HOP-92 = system: HOP-92
A498 = system: A498
Malme-3M = system: Malme-3M
NCI-H226 = system: NCI-H226
SF-268 = system: SF-268
HL-60 = system: HL-60
LOX IMVI = system: LOX IMVI
MCF7 = system: MCF7
U-251 = system: U-251
OVCAR-8 = system: OVCAR-8
SNB-75 = system: SNB-75

Structure (SMILES): CCOC(=O)/C=C/C1=C(Br)[C@@]2(C)CC[C@@H]3c4ccc(O)cc4CC[C@H]3[C@@H]2C1
- GI50 (DU-145): 6.87 µM (inactive)
- GI50 (Hs-578T): 15.6 µM (inactive)
- GI50 (T47D): 4.86 µM (inactive)
- GI50 (MDA-MB-435): 15.2 µM (inactive)
- GI50 (SK-MEL-28): 16.4 µM (inactive)
- GI50 (SNB-19): 16.6 µM (inactive)
- GI50 (CAKI-1): 16.4 µM (inactive)
- GI50 (HOP-62): 14.4 µM (inactive)
- GI50 (ACHN): 15.7 µM (inactive)
- GI50 (HT-29): 14.6 µM (inactive)
- GI50 (A549): 16.9 µM (inactive)
- GI50 (TK-10): 17.9 µM (inactive)
- GI50 (COLO 205): 17.8 µM (inactive)
- GI50 (UO-31): 16.8 µM (inactive)
- GI50 (MDA-N): 13.8 µM (inactive)
- GI50 (HCT-116): 13.7 µM (inactive)
- GI50 (SK-MEL-5): 13.6 µM (inactive)
- GI50 (SK-MEL-2): 14.9 µM (inactive)
- GI50 (KM12): 16.2 µM (inactive)
- GI50 (SF-539): 17 µM (inactive)
- GI50 (SF-295): 15.8 µM (inactive)
- GI50 (RXF 393): 15.7 µM (inactive)
- GI50 (NCI-H23): 13.7 µM (inactive)
- GI50 (OVCAR-3): 7.94 µM (inactive)
- GI50 (K562): 9.98 µM (inactive)
- GI50 (NCI-H522): 4.02 µM (inactive)
- GI50 (BT-549): 14.3 µM (inactive)
- GI50 (OVCAR-4): 14.5 µM (inactive)
- GI50 (HCT-15): 12.1 µM
- GI50 (NCI/ADR-RES): 14.7 µM (inactive)
- GI50 (OVCAR-5): 15.2 µM (inactive)
- GI50 (786-0): 12.8 µM (inactive)
- GI50 (SR): 7.03 µM (inactive)
- GI50 (UACC-62): 6.85 µM (inactive)
- GI50 (RPMI-8226): 2.17 µM (inactive)
- GI50 (MOLT-4): 12.5 µM (inactive)
- GI50 (PC-3): 15.2 µM (inactive)
- GI50 (HCC 2998): 14.8 µM (inactive)
- GI50 (UACC-257): 13.9 µM (inactive)
- GI50 (EKVX): 17.1 µM (inactive)
- GI50 (IGROV-1): 12.2 µM (inactive)
- GI50 (SW-620): 13.7 µM (inactive)
- GI50 (NCI-H460): 14.7 µM (inactive)
- GI50 (CCRF-CEM): 7.83 µM (inactive)
- GI50 (M14): 11.7 µM (inactive)
- GI50 (SN12C): 13.6 µM (inactive)
- GI50 (SK-OV-3): 15.4 µM (inactive)
- GI50 (HOP-92): 11.6 µM (inactive)
- GI50 (A498): 18.1 µM (inactive)
- GI50 (Malme-3M): 12 µM (inactive)
- GI50 (NCI-H226): 15.2 µM (inactive)
- GI50 (SF-268): 19 µM (inactive)
- GI50 (HL-60): 17.9 µM (inactive)
- GI50 (LOX IMVI): 7.08 µM (inactive)
- GI50 (MCF7): 13.6 µM (inactive)
- GI50 (U-251): 16.6 µM (inactive)

Structure (SMILES): CC(=O)/N=C1\C=C(NC(C)=O)C(=O)c2ccccc21
- GI50 (Hs-578T): 6.28 µM (inactive)
- GI50 (T47D): 1.48 µM (inactive)
- GI50 (MDA-MB-435): 1.82 µM (inactive)
- GI50 (SK-MEL-28): 3 µM (inactive)
- GI50 (SNB-19): 3.03 µM (inactive)
- GI50 (CAKI-1): 1.95 µM (inactive)
- GI50 (HOP-62): 18.5 µM (inactive)
- GI50 (ACHN): 1.45 µM (inactive)
- GI50 (HT-29): 2.58 µM (inactive)
- GI50 (A549): 4.62 µM (inactive)
- GI50 (TK-10): 5.64 µM (inactive)
- GI50 (COLO 205): 1.94 µM (inactive)
- GI50 (UO-31): 2.04 µM (inactive)
- GI50 (MDA-N): 1.9 µM (inactive)
- GI50 (HCT-116): 1.49 µM (inactive)
- GI50 (SK-MEL-5): 1.64 µM (inactive)
- GI50 (SK-MEL-2): 3.09 µM (inactive)
- GI50 (KM12): 5.41 µM (inactive)
- GI50 (SF-539): 2.37 µM (inactive)
- GI50 (SF-295): 3.68 µM (inactive)
- GI50 (RXF 393): 2.21 µM (inactive)
- GI50 (NCI-H23): 0.451 µM (active)
- GI50 (OVCAR-3): 2.01 µM (inactive)
- GI50 (K562): 2.04 µM (inactive)
- GI50 (NCI-H522): 1.33 µM (inactive)
- GI50 (BT-549): 2.17 µM (inactive)
- GI50 (OVCAR-8): 2.21 µM (inactive)
- GI50 (OVCAR-4): 1.66 µM (inactive)
- GI50 (HCT-15): 1.89 µM
- GI50 (NCI/ADR-RES): 2.51 µM (inactive)
- GI50 (OVCAR-5): 2.13 µM (inactive)
- GI50 (786-0): 1.81 µM (inactive)
- GI50 (SR): 1.52 µM (inactive)
- GI50 (UACC-62): 2.35 µM (inactive)
- GI50 (RPMI-8226): 1.39 µM (inactive)
- GI50 (MOLT-4): 1.98 µM (inactive)
- GI50 (PC-3): 2.9 µM (inactive)
- GI50 (HCC 2998): 17.7 µM (inactive)
- GI50 (UACC-257): 1.81 µM (inactive)
- GI50 (EKVX): 5.19 µM (inactive)
- GI50 (IGROV-1): 1.71 µM (inactive)
- GI50 (SW-620): 1.93 µM (inactive)
- GI50 (NCI-H460): 5.08 µM (inactive)
- GI50 (CCRF-CEM): 2.84 µM (inactive)
- GI50 (SNB-75): 2.54 µM (inactive)
- GI50 (M14): 1.73 µM (inactive)
- GI50 (SN12C): 1.78 µM (inactive)
- GI50 (SK-OV-3): 6.79 µM (inactive)
- GI50 (HOP-92): 1.45 µM (inactive)
- GI50 (A498): 15.2 µM (inactive)
- GI50 (Malme-3M): 1.93 µM (inactive)
- GI50 (NCI-H226): 7.96 µM (inactive)
- GI50 (SF-268): 3.18 µM (inactive)
- GI50 (HL-60): 1.85 µM (inactive)
- GI50 (LOX IMVI): 1.68 µM (inactive)
- GI50 (MCF7): 1.76 µM (inactive)
- GI50 (U-251): 2.99 µM (inactive)
